EC50, IC50 and Ki data for five molecules are collected here from patent US6358947B1 (American Home Products Corporation, priority 1999, dated 2002).

What is called Ki is the equilibrium dissociation constant of an inhibitor or competing ligand from its target.

In experiment [1] the target is T1, hAR (Homo sapiens, UniProt P10275).
T1 sequence (P10275 1-920): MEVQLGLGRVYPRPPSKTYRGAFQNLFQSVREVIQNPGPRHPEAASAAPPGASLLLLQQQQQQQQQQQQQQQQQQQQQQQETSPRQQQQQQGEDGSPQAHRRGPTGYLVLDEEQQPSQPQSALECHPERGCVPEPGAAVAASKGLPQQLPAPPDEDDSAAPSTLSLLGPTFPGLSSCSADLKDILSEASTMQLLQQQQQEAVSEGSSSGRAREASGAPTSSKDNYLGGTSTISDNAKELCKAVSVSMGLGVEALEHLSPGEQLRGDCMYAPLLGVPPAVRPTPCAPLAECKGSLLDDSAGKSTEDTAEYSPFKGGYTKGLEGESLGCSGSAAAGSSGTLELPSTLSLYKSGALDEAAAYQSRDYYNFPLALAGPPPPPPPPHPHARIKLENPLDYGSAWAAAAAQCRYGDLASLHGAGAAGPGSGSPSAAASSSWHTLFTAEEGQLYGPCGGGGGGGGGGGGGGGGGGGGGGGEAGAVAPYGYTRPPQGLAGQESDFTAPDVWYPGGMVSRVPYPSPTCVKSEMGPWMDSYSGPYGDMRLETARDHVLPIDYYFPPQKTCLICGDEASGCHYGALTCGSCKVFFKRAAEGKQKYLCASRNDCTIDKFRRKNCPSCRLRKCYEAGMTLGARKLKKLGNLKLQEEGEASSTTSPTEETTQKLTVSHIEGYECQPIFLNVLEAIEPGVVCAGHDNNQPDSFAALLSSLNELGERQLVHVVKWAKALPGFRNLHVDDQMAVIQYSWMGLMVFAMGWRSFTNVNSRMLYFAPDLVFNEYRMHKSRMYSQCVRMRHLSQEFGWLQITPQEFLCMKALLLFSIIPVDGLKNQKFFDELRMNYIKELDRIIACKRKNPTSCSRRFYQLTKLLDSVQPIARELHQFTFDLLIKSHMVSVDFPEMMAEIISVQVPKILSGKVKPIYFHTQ
The experiment in a line: Cotransfection assay, AR agonist. It counts as cell-based. The following applies: read-out: AR Potency Agon.
Source text: (§1) The cotransfection assay provides a method for identifying functional agonists and partial agonists that mimic, or antagonists that inhibit, the effect of native hormones, and for quantifying their activity for responsive intracellular receptor (IR) proteins. In this regard, the cotransfection assay mimics an in vivo system in the laboratory. Importantly, activity in the cotransfection assay correlates very well with known in vivo activity, such that the cotransfection assay functions as a qualitative and quantitative predictor of a tested compound's in vivo pharmacology.
(§2) In the cotransfection assay, a cloned cDNA for an IR (e.g., human PR, AR or GR) under the control of a constitutive promoter (e.g., the SV 40 promoter) is introduced by transfection (a procedure to induce cells to take up foreign genes) into a background cell substantially devoid of endogenous IRs. This introduced gene directs the recipient cells to make the IR protein of interest. A second gene is also introduced (cotransfected) into the same cells in conjunction with the IR gene. This second gene, comprising the cDNA for a reporter protein, such as firefly luciferase (LUC), is controlled by an appropriate hormone responsive promoter containing a hormone response element (HRE). This reporter plasmid functions as a reporter for the transcription-modulating activity of the target IR. Thus, the reporter acts as a surrogate for the products (mRNA, then protein) normally expressed by a gene under control of the target receptor and its native hormone.
(§3) The cotransfection assay can detect small molecule agonists or antagonists of target IRs. Exposing the transfected cells to an agonist ligand compound increases reporter activity in the transfected cells. This activity can be conveniently measured, e.g., by increasing luciferase production, which reflects compound-dependent, IR-mediated increases in reporter transcription. […] Increasing concentrations of a suspected antagonist will decrease the reporter signal (e.g., luciferase production). The cotransfection assay is therefore useful to detect both agonists and antagonists of specific IRs. Furthermore, it determines not only whether a compound interacts with a particular IR, but whether this interaction mimics (agonizes) or blocks (antagonizes) the effects of the native regulatory molecules on target gene expression, as well as the specificity and strength of this interaction.

The target in the next experiment is T2, hGR (Homo sapiens, UniProt P04150).
T2 sequence (P04150 1-777): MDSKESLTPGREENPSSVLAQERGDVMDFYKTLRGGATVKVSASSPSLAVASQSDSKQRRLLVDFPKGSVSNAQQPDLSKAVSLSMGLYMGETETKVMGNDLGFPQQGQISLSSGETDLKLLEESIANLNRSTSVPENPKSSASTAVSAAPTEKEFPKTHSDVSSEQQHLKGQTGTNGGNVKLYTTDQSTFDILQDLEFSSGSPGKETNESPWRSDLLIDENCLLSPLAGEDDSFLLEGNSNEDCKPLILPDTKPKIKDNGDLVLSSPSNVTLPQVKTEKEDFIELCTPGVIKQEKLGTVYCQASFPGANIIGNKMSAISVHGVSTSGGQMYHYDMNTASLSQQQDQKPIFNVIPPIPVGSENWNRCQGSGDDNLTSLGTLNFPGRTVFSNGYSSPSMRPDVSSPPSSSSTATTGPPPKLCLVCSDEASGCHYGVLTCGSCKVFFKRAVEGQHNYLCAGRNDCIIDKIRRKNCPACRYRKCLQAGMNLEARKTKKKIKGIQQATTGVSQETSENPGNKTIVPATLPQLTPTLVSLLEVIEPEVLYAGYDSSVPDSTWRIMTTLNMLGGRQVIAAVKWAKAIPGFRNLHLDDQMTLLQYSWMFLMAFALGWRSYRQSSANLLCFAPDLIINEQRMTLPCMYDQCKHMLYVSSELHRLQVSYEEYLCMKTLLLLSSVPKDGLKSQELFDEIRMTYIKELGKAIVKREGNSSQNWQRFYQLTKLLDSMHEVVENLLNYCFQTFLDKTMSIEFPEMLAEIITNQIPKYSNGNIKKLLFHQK
Kind of experiment: Cotransfection assay, GR antagonist. The format is cell-based. To be noted: read-out: GR Potency Antag.

For experiment [2], the target named is T1, hAR. The experiment in a line: Cotransfection assay, AR antagonist. It counts as cell-based. To be noted: read-out: AR Potency Antag.
Source text: as §1, §2, §3
A further experiment has as its target T3, hPR-A (Homo sapiens, UniProt P06401).
T3 sequence (P06401 1-769 isoform P06401-2): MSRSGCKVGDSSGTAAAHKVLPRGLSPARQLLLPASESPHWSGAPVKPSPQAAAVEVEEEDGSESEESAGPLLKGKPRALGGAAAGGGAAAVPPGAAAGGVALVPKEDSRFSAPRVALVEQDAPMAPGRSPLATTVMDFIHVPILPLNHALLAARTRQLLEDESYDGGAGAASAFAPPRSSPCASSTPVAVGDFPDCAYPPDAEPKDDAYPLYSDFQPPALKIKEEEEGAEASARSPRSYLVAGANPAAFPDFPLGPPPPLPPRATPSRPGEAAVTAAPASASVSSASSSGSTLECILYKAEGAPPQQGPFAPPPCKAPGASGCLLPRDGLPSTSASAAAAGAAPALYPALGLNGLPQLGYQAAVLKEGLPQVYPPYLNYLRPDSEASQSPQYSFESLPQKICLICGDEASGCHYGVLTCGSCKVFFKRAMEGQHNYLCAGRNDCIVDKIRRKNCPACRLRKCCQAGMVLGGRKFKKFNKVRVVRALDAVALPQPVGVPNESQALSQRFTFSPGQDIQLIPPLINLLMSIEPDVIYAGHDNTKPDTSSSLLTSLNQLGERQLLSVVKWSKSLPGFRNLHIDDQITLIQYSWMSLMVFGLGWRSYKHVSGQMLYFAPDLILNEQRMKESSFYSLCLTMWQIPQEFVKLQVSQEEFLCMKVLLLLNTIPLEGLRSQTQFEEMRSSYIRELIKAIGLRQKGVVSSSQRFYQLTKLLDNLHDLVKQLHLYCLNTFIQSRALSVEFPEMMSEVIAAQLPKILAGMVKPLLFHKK
Kind of experiment: PR receptor binding assay.

A value given as a limit tells only on which side of the number the result lay.

Source text for hGR: as §1, §2, §3

Take `CC1(C)OC(=O)Nc2ccc3c(c21)COc1c(F)cccc1-3` [Compound 14, 7-Fluoro-4,4-dimethyl-5H-chromeno[3,4-f]-1,3-benzo[d]oxazin-2-one]: the EC50 at hAR [1] is greater than 10000 nM. The IC50 was greater than 10000 nM at hGR and 200 nM at hAR [2]. Also, at hPR-A, the inhibitory constant (Ki) turned out to be 172 nM.
In the case of `CC1(C)OC(=O)Nc2ccc3c(c21)COc1c(F)cc(Br)cc1-3` [Compound 20, 9-Bromo-7-fluoro-4,4-dimethyl-5H-chromeno[3,4-f]-1,3-benzo[d]oxazin-2-one], the EC50 on hAR [1] was greater than 10000 nM. The IC50 on hGR is greater than 10000 nM; on hAR [2] it was 1000 nM. This molecule also showed a Ki at hPR-A of 17 nM.
As for `CC1(C)OC(=O)Nc2ccc3c(c21)COc1c(F)cc(C=O)cc1-3` [Compound 24, 7-fluoro-9-formyl-4,4-dimethyl-5H-chromeno[3,4-f]-1,3-benzo[d]oxazin-2-one], the EC50 on hAR [1] is greater than 10000 nM. Moreover, the results for the IC50 on hGR and at hAR [2] were greater than 10000 nM and 130 nM, respectively. The molecule also yielded a Ki at hPR-A of 181 nM.
Turning to `CC1(C)OC(=O)Nc2ccc3c(c21)COc1c(F)cc(C=NO)cc1-3` [Compound 25, 7-fluoro-9-hydroxyiminomethyl-4,4-dimethyl-5H-chromeno[3,4-f]-1,3-benzo[d]oxazin-2-one], the EC50 at hAR [1] was greater than 10000 nM. Moreover, the IC50 at hGR is greater than 10000 nM; at hAR [2] it was 100 nM. Affinity at hPR-A was put at a Ki of 65 nM.
On to `CC1(C)OC(=O)Nc2ccc3c(c21)COc1c(F)cc(C#N)cc1-3` [Compound 26, 9-cyano-7-fluoro-4,4-dimethyl-5H-chromeno[3,4-f]-1,3-benzo[d]oxazin-2-one], for which the EC50 on hAR [1] is greater than 10000 nM. Besides, the IC50 at hGR is greater than 10000 nM; at hAR [2], 300 nM. This molecule also had an inhibitory constant (Ki) on hPR-A of 20 nM.
